The target of series [1] is dopamine D1 receptor (Macaca mulatta (Rhesus macaque), UniProt O77680). The experiment in a line: Affinity on dopamine D1 receptor, competition with [3H] SCH23390. Type of series: binding. On the set-up: D1 receptor inhibition ratio (%): concentration or dose not given beside the values. The settings on record: for affinity on dopamine D1 receptor (in words): summary of the tables. How it is done:
(§1) (1). Determination of the Affinity of Hexahydrodibenzo[a,g]Quinolizine Compound of General Formula I and Derivatives Thereof on Dopamine D1, Dopamine D2, 5-HT1A, and 5-HT2A Receptor.
(§2) 1) The Experimental Method
(§3) Different concentrations (10^−5 M-10^−11 M) of the compound of the invention and corresponding isotope receptor ligand as well as receptor protein were loaded into the reaction tube and incubated in 30° C. water bath for 60 minutes. The reaction was terminated in a refrigerator. The reaction mixture was put in a Millipore filter (millipore) cell sample collector, filtered through suction filtration using GF/C glass fiber filter paper, and dried. The resulting sample was placed into 0.5 mL tube. 500 μL liquid scintillation fluid was added and intensity of radioactivity was determined by counting.
(§4) (1) Construction of receptor and materials for cell culture: Escherichia coli. DH5α strain; insect virus transfer vector pVL1393 plasmid; BaculoGold linear Chinese baculovirus DNA, purchased from ParMingen company; mkD1RcDNA; rD2R cDNA; various restriction endonucleases, TaqDNA polymerase, T4 ligase, etc., LB medium; insect cell culture TNM-FH.
(§5) (2) the Experimental Materials for Receptor Binding
(§6) Firstly, the above […] are dissolved in DMSO and then diluted with double distilled water to the appropriate concentration (10^−5 M-10^−11 M).
(§7) (+) Butaclamo purchased from RBI company, GF/C glass fiber filter paper purchased from Whatman Co., scintillation fluid (dopamine D1, D2 receptors)/liposoluble scintillation fluid (5-HT1A, 5-HT2A receptor), Beckman LS-6500 multi-function liquid scintillation counter.

The target of series [2] is D2 dopamine receptor (Rattus norvegicus (Rat), UniProt P61169). Nature of the series: Affinity on dopamine D2 receptor, competition with [3H] Spiperone. The settings on record: for affinity on dopamine D2 receptor (in words): summary of the tables. On the set-up: D2 receptor inhibition ratio (%): concentration or dose not given beside the values. Type of series: binding. How it is done:
as §1, §2, §3, §4, §5, §6, §7

Series [3] has as its target T1, dopamine D2 receptor (Homo sapiens (Human), UniProt P14416). The experiment in a line: Inhibition property on dopamine D2 receptor, cAMP detection in CHO cells stably expressing D2 receptor. It counts as cell-based. The settings on record: 10 μM Forskoline and 10 μM dopamine, read-out: D2 receptor Antagonist IC50. How it is done:
2. Determination of the Inhibition Property of Hexahydrodibenzo[a,g]Quinolizine Compound of General Formula I and Derivatives Thereof on Dopamine D2 Receptor.
(1) The Experimental Method
Each medicament was dissolved in serum-free F12 culture medium containing 100 μM of IBMX. CHO cells which can stably express D2 receptor were pre-incubated at 37° C. for 10 min, and then 10 μM Forskoline and 10 μM Dopanie were added at the same time to react for 10 min. 100 μL, of pre-cooled 1 M of HClO4 was added and the reaction was terminated at 4° C. for 1 hour. 20 μL of 2 M K2CO3 was added to neutralize the reaction. […] A certain amount of the supernatant was taken for cAMP detection.

For series [4], the target named is 5-HT1A receptor (Homo sapiens (Human), UniProt P08908). The experiment in a line: Affinity on 5-HT1A receptor, competition with [3H] 8-OH-DPAT. Type of series: binding. How it is done: as §1, §2, §3, §5
8-OH-DPAT; 5-HT1A receptor protein expressed in HEK-293 cells;
as §6, §7

Series [5] deals with 5-HT2A receptor (Homo sapiens (Human), UniProt P28223). The experiment in a line: Affinity on 5-HT2A receptor, competition with [3H]-Ketanserin. Type of series: binding. How it is done: as §1, §2, §3, §5, §6, §7
Series [6] has as its target D1 dopamine receptors (Homo sapiens (Human), UniProt P21728). The experiment in a line: Radioligand binding assay, D1 receptor, HEK293T membrane homogenates. The settings on record: HEK293T membranes, [3H]SCH23390. How it is done:
(§8) The affinity of compounds to D1 and D2 dopamine receptors were determined by competition binding assays. Membrane homogenates of HEK293T cells were stably transfected with D1, or D2 receptors. […] The reaction was started by addition of membranes ([…]) and stopped by rapid filtration through Whatman GF/B glassfiber filter and subsequently washed with cold buffer (50 mM Tris, 5 mM EDTA, pH 7.4) using a Brandel 24-well cell harvester. Scintillation cocktail was added and the radioactivity was determined in a MicroBeta liquid scintillation counter. The IC50 and Ki values were calculated by nonlinear regression (PRISM, Graphpad, San Diego, Calif.) using a sigmoidal function.

The target of series [7] is T1, dopamine D2 receptor. Nature of the series: Radioligand binding assay, D2 receptor, HEK293T membrane homogenates. Details: D2 Inhibition (%): concentration or dose not given beside the values. The settings on record: HEK293T membranes, [3H]Spiperone. Here is the method: as §8
The target in series [8] is D1 receptor (Homo sapiens (Human), UniProt P21728). The experiment in a line: [35S]GTPγS binding assay for D1 receptor. It counts as biochemical. The settings on record: for D1 antagonist Imax % / IC50: [35S]GTPγS binding; for IC50: read-out: D1 antagonist IC50; for D1 receptor antagonistic activity (in words) / D1 receptor selectivity (in words): summary of Table 10. For orientation: GTPγS resists hydrolysis and so accumulates on activated G proteins.

The conditions of series [9]: according to CN101037436; cited from earlier work.

We go through 11 molecules from patent US9359372B2, “Hexahydrodibenzo[a,g]quinolizine compound, preparation method thereof, pharmaceutical composition and use thereof” (SHANGHAI INSTITUTE OF MATERIA MEDICA, CHINESE ACADEMY OF …, priority 2011, dated 2016).

Chain of 5-HT1A receptor (P08908 whole entry): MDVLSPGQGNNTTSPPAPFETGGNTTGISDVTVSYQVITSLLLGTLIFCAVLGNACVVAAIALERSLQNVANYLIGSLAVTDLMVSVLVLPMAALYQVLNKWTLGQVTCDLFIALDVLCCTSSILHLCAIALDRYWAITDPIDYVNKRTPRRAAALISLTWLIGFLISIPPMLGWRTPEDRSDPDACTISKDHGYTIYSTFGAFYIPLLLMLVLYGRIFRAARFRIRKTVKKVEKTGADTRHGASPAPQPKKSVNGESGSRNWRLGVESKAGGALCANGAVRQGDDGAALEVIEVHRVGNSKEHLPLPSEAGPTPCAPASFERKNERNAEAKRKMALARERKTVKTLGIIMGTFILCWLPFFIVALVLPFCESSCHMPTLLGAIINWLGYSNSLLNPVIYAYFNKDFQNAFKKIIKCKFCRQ
T1 sequence (P14416 whole entry, species assumed): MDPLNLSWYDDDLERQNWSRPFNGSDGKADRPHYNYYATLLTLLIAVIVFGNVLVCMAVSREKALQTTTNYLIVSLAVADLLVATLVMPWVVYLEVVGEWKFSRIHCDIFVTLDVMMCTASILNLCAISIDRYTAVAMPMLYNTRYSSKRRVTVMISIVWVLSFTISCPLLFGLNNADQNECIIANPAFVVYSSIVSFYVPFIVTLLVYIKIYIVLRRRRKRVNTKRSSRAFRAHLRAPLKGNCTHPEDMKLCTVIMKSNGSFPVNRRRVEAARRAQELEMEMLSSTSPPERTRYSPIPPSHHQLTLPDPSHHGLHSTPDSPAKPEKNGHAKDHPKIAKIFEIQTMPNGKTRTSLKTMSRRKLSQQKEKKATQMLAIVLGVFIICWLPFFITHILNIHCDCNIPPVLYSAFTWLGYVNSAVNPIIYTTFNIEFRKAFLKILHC
Chain of D2 dopamine receptor (P61169 whole entry): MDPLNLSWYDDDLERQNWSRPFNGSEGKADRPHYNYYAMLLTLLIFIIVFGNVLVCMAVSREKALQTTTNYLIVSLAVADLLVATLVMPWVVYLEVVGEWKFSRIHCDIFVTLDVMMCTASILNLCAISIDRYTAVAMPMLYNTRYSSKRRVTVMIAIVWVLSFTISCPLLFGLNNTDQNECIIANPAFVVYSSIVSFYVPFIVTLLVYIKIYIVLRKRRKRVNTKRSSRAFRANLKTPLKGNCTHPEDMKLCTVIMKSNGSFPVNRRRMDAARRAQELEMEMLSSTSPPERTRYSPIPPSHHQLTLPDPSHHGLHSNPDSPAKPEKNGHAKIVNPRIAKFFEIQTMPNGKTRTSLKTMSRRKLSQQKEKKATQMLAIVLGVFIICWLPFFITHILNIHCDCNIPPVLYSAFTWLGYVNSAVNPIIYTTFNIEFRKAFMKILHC
Chain of 5-HT2A receptor (P28223 whole entry): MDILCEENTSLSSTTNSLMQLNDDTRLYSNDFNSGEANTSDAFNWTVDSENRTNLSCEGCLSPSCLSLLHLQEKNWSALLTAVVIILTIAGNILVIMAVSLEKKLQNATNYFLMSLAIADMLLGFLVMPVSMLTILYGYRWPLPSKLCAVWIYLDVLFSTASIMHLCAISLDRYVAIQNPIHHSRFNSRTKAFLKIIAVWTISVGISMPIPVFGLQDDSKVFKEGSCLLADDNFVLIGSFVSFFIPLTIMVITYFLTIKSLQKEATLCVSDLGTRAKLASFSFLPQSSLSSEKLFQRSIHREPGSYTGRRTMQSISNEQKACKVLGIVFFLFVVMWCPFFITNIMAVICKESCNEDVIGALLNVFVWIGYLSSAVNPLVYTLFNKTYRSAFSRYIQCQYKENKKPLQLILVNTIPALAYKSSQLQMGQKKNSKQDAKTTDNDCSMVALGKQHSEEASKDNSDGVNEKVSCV
Chain of dopamine D1 receptor (O77680 whole entry): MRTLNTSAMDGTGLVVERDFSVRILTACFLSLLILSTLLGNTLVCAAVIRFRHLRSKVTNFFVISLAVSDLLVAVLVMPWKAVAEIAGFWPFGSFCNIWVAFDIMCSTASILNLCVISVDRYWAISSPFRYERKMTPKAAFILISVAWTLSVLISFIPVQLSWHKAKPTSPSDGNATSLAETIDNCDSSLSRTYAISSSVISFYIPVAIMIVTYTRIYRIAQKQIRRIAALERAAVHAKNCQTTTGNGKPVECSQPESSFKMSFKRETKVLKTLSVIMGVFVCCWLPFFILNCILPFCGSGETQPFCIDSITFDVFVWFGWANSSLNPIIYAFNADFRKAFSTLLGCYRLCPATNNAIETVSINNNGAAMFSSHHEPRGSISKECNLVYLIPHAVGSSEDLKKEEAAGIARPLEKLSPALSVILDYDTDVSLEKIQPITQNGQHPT
Chain of D1 receptor (P21728 whole entry): as the sequence (O77680 whole entry) above, with I311N counted along it
Chain of D1 dopamine receptors (P21728 whole entry): as the sequence (O77680 whole entry) above, with I311N counted along it

A word on the IC50: it is the midpoint of a concentration-inhibition curve. As usually defined, the Ki is the dissociation constant of the complex between target and ligand, obtained from inhibition or displacement. Turning to `COc1cc2c(cc1OC)[C@@H]1Cc3cc(C)cc(C)c3CN1CC2` [DC037017, S-(−)-2,3-bimethoxy-9,11-dimethyl-5,8,13,13a-tetrahydro-6H-dibenzo[a,g]quinolizine], in series [1], the “D1 receptor inhibition ratio (%)” value is on record as 94.5%, the IC50 is 684 nM and the Ki worked out at 338 nM. In addition, in series [2], the “D2 receptor inhibition ratio (%)” value is given as 97.4%, the IC50 came out at 1160 nM and the inhibition constant (Ki) was determined as 224 nM. For the same molecule, the IC50 in [3] was 16200 nM.
Regarding `COc1cc2c(cc1O)[C@@H]1Cc3c(OC)ccc(OC)c3CN1CC2` [DC037030, S-(−)-2-hydroxy-3,9,12-trimethoxy-5,8,13,13a-tetrahydro-6H-dibenzo[a,g]quinolizine], in series [1], the “D1 receptor inhibition ratio (%)” value stood at 99.89%, the IC50 worked out at 7.22 nM, the Ki amounted to 3.7 nM and the “affinity on dopamine D1 receptor (in words)” value is listed as “strong affinity”. For the same molecule, in series [2], the “D2 receptor inhibition ratio (%)” value worked out at 74.27% and the “affinity on dopamine D2 receptor (in words)” value is recorded as “strong affinity”. Moreover, in [4], the “5-HT1A receptor inhibition ratio (%)” value was 80.41%, the IC50 is 626 nM and the Ki amounted to 493 nM. Also, in series [5], the “5-HT2A receptor inhibition ratio (%)” value is 39.99%. In series [6], the Ki is 3.7 ± 0.26 nM. Further, the “D2 Inhibition (%)” value in series [7] worked out at 74.27%. Besides, in [8], the “D1 antagonist Imax %” value is on record as 86.8 ± 1.6%, the IC50 came out at 1900 ± 400 nM, the “D1 receptor antagonistic activity (in words)” value is “D1 receptor antagonistic activity” and the “D1 receptor selectivity (in words)” value is reported as “good D1 receptor selectivity”.
With `COc1cc2c(c(OC)c1)CN1CCc3cc(OC)c(O)cc3[C@@H]1C2` [DC037079, (S)-2-hydroxy-3,9,11-trimethoxy-5,8,13,13a-tetrahydro-6H-dibenzo-[a,g]quinolizine], in series [1], the “D1 receptor inhibition ratio (%)” value was 99.99%, the IC50 amounted to 9.85 nM, the Ki was 5.18 nM and the “affinity on dopamine D1 receptor (in words)” value was “strong affinity”. Further, in series [2], the “D2 receptor inhibition ratio (%)” value is reported as 76.21% and the “affinity on dopamine D2 receptor (in words)” value is on record as “strong affinity”. In series [6], this molecule showed a Ki of 2.53 ± 0.16 nM. For the same molecule, the “D2 Inhibition (%)” value in [7] is given as 83.31%. In series [8], the “D1 antagonist Imax %” value turned out to be 94.2 ± 1.5%, the IC50 was determined as 1400 ± 200 nM, the “D1 receptor antagonistic activity (in words)” value is given as “D1 receptor antagonistic activity” and the “D1 receptor selectivity (in words)” value is recorded as “good D1 receptor selectivity”.
Take `COc1cc2c(c(OC)c1)CN1CCc3cc(OC)c(OC)cc3[C@@H]1C2` [DC037075, (S)-2,3,9,11-tetramethoxy-5,8,13,13a-tetrahydro-6H-dibenzo[a,g]quinolizine]: in [1], the “D1 receptor inhibition ratio (%)” value was determined as 97.88%, the IC50 stood at 114 nM and the inhibitory constant (Ki) was 64.1 nM. Further, in [2], the “D2 receptor inhibition ratio (%)” value amounted to 39.50%. In series [4], the “5-HT1A receptor inhibition ratio (%)” value was 90.77%, the half-maximal inhibitory concentration (IC50) was 922 nM and affinity was put at a Ki of 730 nM. Moreover, the “5-HT2A receptor inhibition ratio (%)” value in series [5] was determined as 54.04%.
For the molecule `COc1cc2c(cc1OC)C1Cc3c(OC)ccc(OC)c3CN1CC2` (racemic) [DC037003, (±)-2,3,9,12-tetramethoxy-5,8,13,13a-tetrahydro-6H-dibenzo[a,g]quinolizine], in [1], the “D1 receptor inhibition ratio (%)” value is recorded as 98.0%, the IC50 worked out at 370 nM and the Ki was determined as 247 nM. For the same molecule, the “D2 receptor inhibition ratio (%)” value in series [2] was determined as 75.75%. Further, in [3], the concentration for half-maximal inhibition (IC50) was determined as 3300 nM.
Take `COc1cc2c(cc1OC)CN1CCc3cc(O)c(O)cc3C1C2` (racemic) [DC037024, (±)-2,3-bihydroxy-10,11-bimethoxy-5,8,13,13a-tetrahydro-6H-dibenzo[a,g]quinolizine]: in series [1], the “D1 receptor inhibition ratio (%)” value is on record as 91.3%, the IC50 came to 1500 nM and the inhibitory constant (Ki) is 741 nM. Further, the “D2 receptor inhibition ratio (%)” value in series [2] was 76.2%. The IC50 in series [3] was 591 nM.
In the case of `COc1cc2c(cc1OC)[C@@H]1Cc3c(OC)ccc(OC)c3CN1CC2` [DC037008, S-(−)-2,3,9,12-tetramethoxy-5,8,13,13a-tetrahydro-6H-dibenzo[a,g]quinolizine], in [1], the “D1 receptor inhibition ratio (%)” value amounted to 101.0%, the IC50 came to 101 nM and the Ki was determined as 50.1 nM. In series [2], the “D2 receptor inhibition ratio (%)” value is given as 92.8%, the IC50 was determined as 1730 nM and the Ki was 334 nM. Besides, in [3], the IC50 was 4030 nM.
`COc1cc(OC)c2c(c1CO)C[C@H]1c3cc4c(cc3CCN1C2)OCO4` [DC037077, (S)-2,3-methylenedioxy-9,11-bimethoxy-12-hydroxymethyl-5,8,13,13a-tetrahydro-6H-dibenzo[a,g]quinolizine]: in series [1], the “D1 receptor inhibition ratio (%)” value came to 97.33%, the 50% inhibitory concentration (IC50) is 324 nM and the Ki amounted to 182 nM. The “D2 receptor inhibition ratio (%)” value in [2] is given as 41.75%. Further, in [4], the “5-HT1A receptor inhibition ratio (%)” value amounted to 88.63%; the IC50 came to 758 nM; the affinity, expressed as Ki, was 600 nM. The “5-HT2A receptor inhibition ratio (%)” value in series [5] turned out to be 45.63%.
With `COc1cc2c(cc1OC)C1Cc3cc(C)cc(C)c3CN1CC2` (racemic) [DC037018, (±)-2,3-bimethoxy-9,11-dimethyl-5,8,13,13a-tetrahydro-6H-dibenzo[a,g]quinolizine], in series [1], the “D1 receptor inhibition ratio (%)” value was found to be 82.5%, the IC50 is 2920 nM and the Ki stood at 1440 nM. The “D2 receptor inhibition ratio (%)” value in [2] is 77.4%. Moreover, in series [3], the 50% inhibitory concentration (IC50) was determined as 15600 nM.
For `COc1cc2c(cc1O)[C@@H]1Cc3ccc(O)c(OC)c3CN1CC2` [l-SPD, l-Stepholidine], the oral bioavailability in [9] is 6.83%.
For the molecule `COc1ccc(OC)c2c1C[C@H]1c3cc4c(cc3CCN1C2)OCCO4` [DC037032], in [1], the “D1 receptor inhibition ratio (%)” value was found to be 99.21%, the half-maximal inhibitory concentration (IC50) is 49.2 nM, the Ki was found to be 25.2 nM and the “affinity on dopamine D1 receptor (in words)” value is on record as “strong affinity”. Besides, in [2], the “D2 receptor inhibition ratio (%)” value is listed as 28.67% and the “affinity on dopamine D2 receptor (in words)” value is listed as “strong affinity”. Besides, in [4], the “5-HT1A receptor inhibition ratio (%)” value came out at 95.36%; the IC50 came to 51.5 nM; the affinity, expressed as Ki, was 40.6 nM. For the same molecule, the “5-HT2A receptor inhibition ratio (%)” value in series [5] stood at 37.75%.
